According to patent US8192962B2, “Processes for detecting toxic substances” (Daikin Industries, Ltd., priority 2001, dated 2012):

Test system: Metabolism protein genes
Test: DNA chip mRNA expression in yeast, metabolism protein genes (Table 7)
Assay type: cell-based, Saccharomyces cerevisiae S288C
Procedure, shortened: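 Values are treated/untreated fluorescence ratios from a whole-genome yeast DNA chip hybridized over 12 hours at 65° C with Cy3- or Cy5-labelled cDNA from poly(A) mRNA. Log-phase S288C yeast in YPD at 25° C had received a single toxic chemical for two hours, dosed to slow growth without killing.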

For `[Cl][Hg][Cl]` [(3), HgCl2], the “The level of expressed mRNA in the presence of chemical substance/The level of expressed mRNA in the absence of chemical substance” value (yeast gene YJR155W) was 1.4, the “The level of expressed mRNA in the presence of chemical substance/The level of expressed mRNA in the absence of chemical substance” value (yeast gene YKL035W) was 4.8 and the “level of expressed mRNA in the presence/in the absence of chemical substance” value (yeast gene YKL060C) was 2.5. For the same molecule, the “The level of expressed mRNA in the presence of chemical substance/The level of expressed mRNA in the absence of chemical substance” value (yeast gene YKL091C) was 1.4, the “The level of expressed mRNA in the presence of chemical substance/The level of expressed mRNA in the absence of chemical substance” value (yeast gene YKL104C) was 1.6 and the “level of expressed mRNA in the presence/in the absence of chemical substance” value (yeast gene YKL148C) was 3.7. The “The level of expressed mRNA in the presence of chemical substance/The level of expressed mRNA in the absence of chemical substance” value (yeast gene YKL152C) was 1.9, the “level of expressed mRNA in the presence/in the absence of chemical substance” value (yeast gene YKL157W) was 2.3 and the “The level of expressed mRNA in the presence of chemical substance/The level of expressed mRNA in the absence of chemical substance” value (yeast gene YKL213C) was 1.0. The “The level of expressed mRNA in the presence of chemical substance/The level of expressed mRNA in the absence of chemical substance” value (yeast gene YKL215C) was 1.3, the “level of expressed mRNA in the presence/in the absence of chemical substance” value (yeast gene YKR034W) was 1.1 and the “The level of expressed mRNA in the presence of chemical substance/The level of expressed mRNA in the absence of chemical substance” value (yeast gene YLL058W) was 1.4. For the same molecule, the “level of expressed mRNA in the presence/in the absence of chemical substance” value (yeast gene YLR006C) was 0.9, the “level of expressed mRNA in the presence/in the absence of chemical substance” value (yeast gene YLR044C) was 2.2 and the “level of expressed mRNA in the presence/in the absence of chemical substance” value (yeast gene YLR056W) was 2.5. The “level of expressed mRNA in the presence/in the absence of chemical substance” value (yeast gene YLR058C) was 5.5, the “level of expressed mRNA in the presence/in the absence of chemical substance” value (yeast gene YLR081W) was 2.8 and the “level of expressed mRNA in the presence/in the absence of chemical substance” value (yeast gene YLR089C) was 2.1. For the same molecule, the “The level of expressed mRNA in the presence of chemical substance/The level of expressed mRNA in the absence of chemical substance” value (yeast gene YLR180W) was 2.4, the “The level of expressed mRNA in the presence of chemical substance/The level of expressed mRNA in the absence of chemical substance” value (yeast gene YLR273C) was 1.3 and the “level of expressed mRNA in the presence/in the absence of chemical substance” value (yeast gene YLR284C) was 3.8. The “The level of expressed mRNA in the presence of chemical substance/The level of expressed mRNA in the absence of chemical substance” value (yeast gene YLR299W) was 1.5, the “The level of expressed mRNA in the presence of chemical substance/The level of expressed mRNA in the absence of chemical substance” value (yeast gene YLR300W) was 0.8 and the “level of expressed mRNA in the presence/in the absence of chemical substance” value (yeast gene YLR304C) was 5.0. The “The level of expressed mRNA in the presence of chemical substance/The level of expressed mRNA in the absence of chemical substance” value (yeast gene YLR307W) was 0.7, the “The level of expressed mRNA in the presence of chemical substance/The level of expressed mRNA in the absence of chemical substance” value (yeast gene YLR348C) was 1.2 and the “level of expressed mRNA in the presence/in the absence of chemical substance” value (yeast gene YLR354C) was 2.3. For the same molecule, the “level of expressed mRNA in the presence/in the absence of chemical substance” value (yeast gene YLR372W) was 1.7, the “level of expressed mRNA in the presence/in the absence of chemical substance” value (yeast gene YML022W) was 2.0 and the “The level of expressed mRNA in the presence of chemical substance/The level of expressed mRNA in the absence of chemical substance” value (yeast gene YML054C) was 1.3. For the same molecule, the “The level of expressed mRNA in the presence of chemical substance/The level of expressed mRNA in the absence of chemical substance” value (yeast gene YML070W) was 2.5, the “The level of expressed mRNA in the presence of chemical substance/The level of expressed mRNA in the absence of chemical substance” value (yeast gene YML100W) was 10.6 and the “The level of expressed mRNA in the presence of chemical substance/The level of expressed mRNA in the absence of chemical substance” value (yeast gene YMR008C) was 1.4. For the same molecule, the “level of expressed mRNA in the presence/in the absence of chemical substance” value (yeast gene YMR011W) was 9.4, the “level of expressed mRNA in the presence/in the absence of chemical substance” value (yeast gene YMR015C) was 1.9 and the “The level of expressed mRNA in the presence of chemical substance/The level of expressed mRNA in the absence of chemical substance” value (yeast gene YMR020W) was 0.9. For the same molecule, the “level of expressed mRNA in the presence/in the absence of chemical substance” value (yeast gene YMR083W) was 2.6, the “The level of expressed mRNA in the presence of chemical substance/The level of expressed mRNA in the absence of chemical substance” value (yeast gene YMR105C) was 5.0 and the “The level of expressed mRNA in the presence of chemical substance/The level of expressed mRNA in the absence of chemical substance” value (yeast gene YMR189W) was 1.9. The “level of expressed mRNA in the presence/in the absence of chemical substance” value (yeast gene YMR205C) was 2.3, the “level of expressed mRNA in the presence/in the absence of chemical substance” value (yeast gene YMR261C) was 3.6 and the “The level of expressed mRNA in the presence of chemical substance/The level of expressed mRNA in the absence of chemical substance” value (yeast gene YMR271C) was 1.3. For the same molecule, the “The level of expressed mRNA in the presence of chemical substance/The level of expressed mRNA in the absence of chemical substance” value (yeast gene YMR296C) was 1.2, the “level of expressed mRNA in the presence/in the absence of chemical substance” value (yeast gene YMR323W) was 2.9 and the “The level of expressed mRNA in the presence of chemical substance/The level of expressed mRNA in the absence of chemical substance” value (yeast gene YNL012W) was 1.8. The “level of expressed mRNA in the presence/in the absence of chemical substance” value (yeast gene YNL025C) was 1.4, the “The level of expressed mRNA in the presence of chemical substance/The level of expressed mRNA in the absence of chemical substance” value (yeast gene YNL045W) was 2.0 and the “The level of expressed mRNA in the presence of chemical substance/The level of expressed mRNA in the absence of chemical substance” value (yeast gene YNL104C) was 3.0. For the same molecule, the “The level of expressed mRNA in the presence of chemical substance/The level of expressed mRNA in the absence of chemical substance” value (yeast gene YNL106C) was 0.8, the “The level of expressed mRNA in the presence of chemical substance/The level of expressed mRNA in the absence of chemical substance” value (yeast gene YNL169C) was 1.4 and the “level of expressed mRNA in the presence/in the absence of chemical substance” value (yeast gene YNL192W) was 1.5. The “The level of expressed mRNA in the presence of chemical substance/The level of expressed mRNA in the absence of chemical substance” value (yeast gene YNL231C) was 0.8, the “The level of expressed mRNA in the presence of chemical substance/The level of expressed mRNA in the absence of chemical substance” value (yeast gene YNL322C) was 1.9 and the “The level of expressed mRNA in the presence of chemical substance/The level of expressed mRNA in the absence of chemical substance” value (yeast gene YNL331C) was 1.3. The “The level of expressed mRNA in the presence of chemical substance/The level of expressed mRNA in the absence of chemical substance” value (yeast gene YNL332W) was 1.1, the “The level of expressed mRNA in the presence of chemical substance/The level of expressed mRNA in the absence of chemical substance” value (yeast gene YNR019W) was 1.6 and the “The level of expressed mRNA in the presence of chemical substance/The level of expressed mRNA in the absence of chemical substance” value (yeast gene YNR033W) was 0.8. For the same molecule, the “The level of expressed mRNA in the presence of chemical substance/The level of expressed mRNA in the absence of chemical substance” value (yeast gene YNR059W) was 0.2, the “The level of expressed mRNA in the presence of chemical substance/The level of expressed mRNA in the absence of chemical substance” value (yeast gene YOL058W) was 1.7 and the “level of expressed mRNA in the presence/in the absence of chemical substance” value (yeast gene YOL086C) was 2.2. For the same molecule, the “level of expressed mRNA in the presence/in the absence of chemical substance” value (yeast gene YOL108C) was 0.4, the “level of expressed mRNA in the presence/in the absence of chemical substance” value (yeast gene YOL116W) was 0.9 and the “The level of expressed mRNA in the presence of chemical substance/The level of expressed mRNA in the absence of chemical substance” value (yeast gene YOL126C) was 1.0. For the same molecule, the “The level of expressed mRNA in the presence of chemical substance/The level of expressed mRNA in the absence of chemical substance” value (yeast gene YOL153C) was 2.1, the “level of expressed mRNA in the presence/in the absence of chemical substance” value (yeast gene YOL156W) was 2.5 and the “The level of expressed mRNA in the presence of chemical substance/The level of expressed mRNA in the absence of chemical substance” value (yeast gene YOL165C) was 1.8. For the same molecule, the “level of expressed mRNA in the presence/in the absence of chemical substance” value (yeast gene YOR002W) was 1.9, the “level of expressed mRNA in the presence/in the absence of chemical substance” value (yeast gene YOR085W) was 1.9 and the “The level of expressed mRNA in the presence of chemical substance/The level of expressed mRNA in the absence of chemical substance” value (yeast gene YOR099W) was 2.1. For the same molecule, the “level of expressed mRNA in the presence/in the absence of chemical substance” value (yeast gene YOR103C) was 1.3, the “level of expressed mRNA in the presence/in the absence of chemical substance” value (yeast gene YOR108W) was 2.3 and the “level of expressed mRNA in the presence/in the absence of chemical substance” value (yeast gene YOR128C) was 2.1. The “The level of expressed mRNA in the presence of chemical substance/The level of expressed mRNA in the absence of chemical substance” value (yeast gene YOR130C) was 1.4, the “level of expressed mRNA in the presence/in the absence of chemical substance” value (yeast gene YOR142W) was 3.4 and the “level of expressed mRNA in the presence/in the absence of chemical substance” value (yeast gene YOR176W) was 2.7. The “level of expressed mRNA in the presence/in the absence of chemical substance” value (yeast gene YOR178C) was 4.8, the “level of expressed mRNA in the presence/in the absence of chemical substance” value (yeast gene YOR251C) was 1.3 and the “The level of expressed mRNA in the presence of chemical substance/The level of expressed mRNA in the absence of chemical substance” value (yeast gene YOR336W) was 0.7. For the same molecule, the “The level of expressed mRNA in the presence of chemical substance/The level of expressed mRNA in the absence of chemical substance” value (yeast gene YOR347C) was 2.1, the “level of expressed mRNA in the presence/in the absence of chemical substance” value (yeast gene YOR348C) was 1.2 and the “The level of expressed mRNA in the presence of chemical substance/The level of expressed mRNA in the absence of chemical substance” value (yeast gene YPL017C) was 0.8. The “level of expressed mRNA in the presence/in the absence of chemical substance” value (yeast gene YPL028W) was 2.6, the “level of expressed mRNA in the presence/in the absence of chemical substance” value (yeast gene YPL057C) was 3.2 and the “level of expressed mRNA in the presence/in the absence of chemical substance” value (yeast gene YPL135W) was 2.5. The “level of expressed mRNA in the presence/in the absence of chemical substance” value (yeast gene YPL148C) was 0.9, the “The level of expressed mRNA in the presence of chemical substance/The level of expressed mRNA in the absence of chemical substance” value (yeast gene YPR026W) was 5.0 and the “level of expressed mRNA in the presence/in the absence of chemical substance” value (yeast gene YPR113W) was 3.7. The “level of expressed mRNA in the presence/in the absence of chemical substance” value (yeast gene YPR165W) was 1.6, the “The level of expressed mRNA in the presence of chemical substance/The level of expressed mRNA in the absence of chemical substance” value (yeast gene YPR167C) was 1.9 and the “level of expressed mRNA in the presence/in the absence of chemical substance” value (yeast gene YPR183W) was 3.5.
